{"source": "patent US20200276174A1", "about": "“CYCLIN-DEPENDENT KINASE INHIBITORS IN COMBINATION WITH ANTHRACYCLINES FOR TREATMENT OF CANCER” (TOLERO PHARMACEUTICALS, INC., priority 2018, published 2020)", "key": {"[1]": {"conditions": "statement only; prodrugs described in WO 2016/187316; cited from earlier work"}, "previously untreated AML": {"test_system": "previously untreated AML", "conditions": "for MRD− (%) / MRD−, number of patients: of all patients evaluable for response", "quoted_text": "The starting dose of alvocidib is 20 mg/m^2 as a 30-minute intravenous (IV) bolus followed by 30 mg/m^2 over 4 hours as an IV infusion administered daily on Days 1-3 of induction. The dose of alvocidib administered in the IV infusion is escalated in 10 mg/m^2 increments to 60 mg/m^2 to determine the maximum tolerated dose and to identify any dose limiting toxicity.\nBeginning on Day 5, cytarabine is administered as a 100 mg/m^2/day continuous IV infusion for seven consecutive days (Days 5-11) plus daunorubicin administered at a bolus dosage of 60 mg/m^2 IV on Days 5-7.\nThe key eligibility criteria were: ages 18-65 years, previously untreated AML, ECOG PS 0-2, and no major organ dysfunction. Treatment consisted of increasing dose levels of alvocidib starting at 20 mg/m^2 as a 30-minute IV bolus followed by 30 mg/m^2 over 4 hours on days 1-3, cytarabine 100 mg/m^2/day by continuous IV infusion on days 5-11, followed by (e.g., followed about 30 minutes later by) daunorubicin 60 mg/m^2 IV on days 5-7. Dose escalation portion was assessed by standard 3+3 design. All patients received a day 14 bone marrow biopsy. Reinduction therapy with alvocidib (same dose as induction) days 1-3, followed by cytarabine 100 mg/m^2/day continuous IV on days 5-9, and daunorubicin 45 mg/m^2 IV days 5-6 was recommended in patients with >10% and >5% cellularity and blasts, respectively."}, "[2]": {"test_system": "AML cell lines (OCI-AML3, U937, Molm-13, MV4-11)", "assay": "72-hour viability assay using CellTiter-Glo, single agents in AML cell lines", "assay_type": "cell-based", "conditions": "for IC50: read-out: single agent IC50 values; for comparison of IC50s/activity across cell lines: single agent", "description": "(A) OCI-AML3, (B) U937, (C) Molm-13, and (D) MV4-11 cells were treated with alvocidib, cytarabine, or daunorubicin, as single agents, in viability assays using CellTiter-Glo according to manufacturer protocol."}, "[3]": {"test_system": "MCL-1 expression in MV4-11 cells", "assay": "MCL-1 expression during the alvocidib+cytarabine+daunorubicin regimen modeled in vitro", "assay_type": "cell-based", "conditions": "alvocidib 80 nM, washed out prior to cytarabine (100 nM) addition, daunorubicin 3 nM, in sequence", "description": "MCL-1 expression during the alvocidib+cytarabine+daunorubicin regimen was modeled in vitro. MV4-11 cells were treated with alvocidib (80 nM), cytarabine (100 nM), or daunorubicin (3 nM), in the sequence shown. Alvocidib (or palbociclib) was washed out prior to cytarabine addition."}, "MV4-11 AML xenograft": {"test_system": "MV4-11 AML xenograft", "assay": "MV4-11 AML xenograft model", "assay_type": "in vivo, female athymic nude mice", "description": "Alvocidib with a cytarabine and daunorubicin regimen were tested in vivo in the MV4-11 AML xenograft model using female athymic nude mice.\nACD (alvocidib+cytarabine+daunorubicin) is an active regimen in MV4-11 AML xenografts. (A) Tumor volume measurements show decreases following the sequential dosing of alvocidib (qdx2), cytarabine (qdx2), and daunorubicin (qdx1). This five day cycle was repeated twice. […] Doses indicated in mg/kg.\nTreatment of alvocidib (1.25 mg/kg) yielded 60.0% TGI."}, "[4]": {"conditions": "Intermediate- and High-risk, evaluable for MRD status N = 9, alvocidib plus 7+3"}, "[5]": {"conditions": "Intermediate- and High-risk, evaluable for response N = 10, alvocidib plus 7+3"}, "[6]": {"conditions": "Intermediate- and High-risk, alvocidib plus 7+3"}, "[7]": {"conditions": "72-hour viability, CellTiter-Glo, one range printed for all three agents over OCI-AML3, U937, Molm-13, MV4-11"}}, "note": "“And” between values parts separate entries of the source, which are not always exact repeats. Equal entries are not always repeated. Where two headings read alike, the source gives them in different places.", "data": [{"smiles": "CN1CC[C@H](c2c(OP(=O)(O)O)cc(O)c3c(=O)cc(-c4ccccc4Cl)oc23)[C@H](O)C1", "note": "[Structural Formula I]", "values": [{"measurement": "oral bioavailability", "setting": "[1]", "result": "orally bioavailable"}]}, {"smiles": "CN1CC[C@H](c2c(O)cc(O)c3c(=O)cc(-c4ccccc4Cl)oc23)[C@H](O)C1", "note": "[alvocidib]", "values": [{"measurement": "MRD− (%)", "setting": "previously untreated AML; All Risks, alvocidib plus 7+3", "result": "(67) %"}, {"measurement": "MRD−, number of patients", "setting": "previously untreated AML; All Risks, alvocidib plus 7+3", "result": "10/15"}, {"measurement": "MRD− Evaluable, number of patients", "setting": "previously untreated AML; All Risks, patients evaluable for MRD status N = 14, alvocidib plus 7+3", "result": "10/14"}, {"measurement": "CR/CRi, number of patients", "setting": "previously untreated AML; All Risks, patients evaluable for response N = 15, alvocidib plus 7+3, all dose levels", "result": "12/15 and 12"}, {"measurement": "MRD− Evaluable (%)", "setting": "previously untreated AML; [4]", "result": "(56) %"}, {"measurement": "MRD− Evaluable, number of patients", "setting": "previously untreated AML; [4]", "result": "5/9"}, {"measurement": "CR/CRi (%)", "setting": "previously untreated AML; [5]", "result": "(70) %"}, {"measurement": "CR/CRi, number of patients", "setting": "previously untreated AML; [5]", "result": 7}, {"measurement": "MRD− (%)", "setting": "previously untreated AML; [6]", "result": "(50) %"}, {"measurement": "MRD−, number of patients", "setting": "previously untreated AML; [6]", "result": "5/10"}, {"measurement": "MTD, IV bolus part", "setting": "previously untreated AML; human, in vivo, iv", "result": 30, "unit": "mg/m^2"}, {"measurement": "MTD, infusion part", "setting": "previously untreated AML; human, in vivo, iv", "result": 60, "unit": "mg/m^2"}, {"measurement": "MRD Status", "setting": "previously untreated AML; per patient, alvocidib dose level 20, 30 mg/m^2 (bolus, infusion) days 1-3, then 7+3", "result": "Negative"}, {"measurement": "MRD Status", "setting": "previously untreated AML; per patient, alvocidib dose level 30, 40 mg/m^2 (bolus, infusion) days 1-3, then 7+3", "result": "Negative"}, {"measurement": "Best Response", "setting": "previously untreated AML; per patient, alvocidib dose level 30, 60 mg/m^2 (bolus, infusion) days 1-3, then 7+3, PD = progression of disease", "result": "CRi"}, {"measurement": "IC50", "setting": "[2]; [7]", "result": "0.0022 to 0.567", "unit": "µM"}, {"measurement": "MCL-1 expression", "setting": "[3]", "result": "suppresses MCL-1 expression throughout the treatment regimen of cytarabine and daunorubicin"}, {"measurement": "tumor growth inhibition (TGI)", "setting": "MV4-11 AML xenograft; alvocidib 1.25 mg/kg", "result": 60.0, "unit": "%"}]}, {"smiles": "Nc1ccn([C@@H]2O[C@H](CO)[C@@H](O)[C@@H]2O)c(=O)n1", "note": "[cytarabine]", "values": [{"measurement": "IC50", "setting": "[2]; [7]", "result": "0.0022 to 0.567", "unit": "µM"}, {"measurement": "comparison of IC50s/activity across cell lines", "setting": "[2]; 72-hour viability", "result": "differing activities in Molm-13, in comparison to OCI-AML3"}, {"measurement": "tumor growth inhibition (TGI)", "setting": "MV4-11 AML xenograft; single agent cytarabine 60 mg/kg", "result": 48.5, "unit": "%"}]}, {"smiles": "COc1cccc2c1C(=O)c1c(O)c3c(c(O)c1C2=O)C[C@@](O)(C(C)=O)C[C@@H]3O[C@H]1C[C@H](N)[C@H](O)[C@H](C)O1", "note": "[daunorubicin]", "values": [{"measurement": "comparison of IC50s/activity across cell lines", "setting": "[2]; 72-hour viability", "result": "differing activities in Molm-13, in comparison to OCI-AML3"}, {"measurement": "IC50", "setting": "[2]; 72 h", "result": "0.0022 to 0.567", "unit": "µM"}, {"measurement": "tumor growth inhibition (TGI)", "setting": "MV4-11 AML xenograft; single agent daunorubicin 0.5 mg/kg", "result": 21.1, "unit": "%"}]}]}
